Structures can show the parent of a compound that is named as a salt. Where two headings read alike, the source gives them in different places.
What was measured:
Format in all cases: biochemical
recombinant PRL-1 = target: T1, recombinant PRL-1 (Homo sapiens, UniProt Q93096); assay: In vitro phosphatase assay (DiFMUP hydrolysis), PRL-1; also: test concentration or dose not given here
T1 construct: 6xHis (N, cleaved yes); made in house; host or cells: E. coli One Shot BL21 Star
T1 sequence (Q93096 1-173): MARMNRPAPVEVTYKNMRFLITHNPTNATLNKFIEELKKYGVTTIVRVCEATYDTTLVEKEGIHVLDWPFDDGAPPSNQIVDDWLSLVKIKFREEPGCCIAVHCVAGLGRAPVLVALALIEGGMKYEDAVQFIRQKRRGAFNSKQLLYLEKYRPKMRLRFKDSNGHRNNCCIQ

recombinant PRL-2 = target: T2, recombinant PRL-2 (Homo sapiens, UniProt Q12974); assay: In vitro phosphatase assay (DiFMUP hydrolysis), PRL-2;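 also: PRL-2 activity read as DiFMUP hydrolysis after 20 min at room temperature with drug, enzyme first pre-reduced at 4 °C for 20 min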
T2 construct: 6xHis (N, cleaved yes); made in house; host or cells: E. coli One Shot BL21 Star
T2 sequence (Q12974 1-167): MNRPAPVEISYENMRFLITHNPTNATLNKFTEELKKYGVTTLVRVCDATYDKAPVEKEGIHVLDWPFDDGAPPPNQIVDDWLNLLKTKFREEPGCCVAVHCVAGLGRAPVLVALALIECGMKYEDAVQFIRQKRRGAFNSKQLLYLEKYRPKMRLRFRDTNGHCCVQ

recombinant PRL-3 = target: T3, recombinant PRL-3 (Homo sapiens, UniProt O75365); assay: In vitro phosphatase assay (DiFMUP hydrolysis), PRL-3; also: test concentration or dose not given here
T3 construct: 6xHis (N, cleaved yes); made in house; host or cells: E. coli One Shot BL21 Star

[1] = FDA-approved drug screen, compared to DMSO
[2] = FDA-approved drug screen, activity compared to DMSO

T3 sequence (O75365 whole entry): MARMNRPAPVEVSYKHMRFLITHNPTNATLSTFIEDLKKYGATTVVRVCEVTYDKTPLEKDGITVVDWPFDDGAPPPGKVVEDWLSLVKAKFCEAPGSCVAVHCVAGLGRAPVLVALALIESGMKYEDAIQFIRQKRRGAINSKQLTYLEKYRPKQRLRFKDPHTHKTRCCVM

Molecule	% Phosphatase Activity (compared to DMSO) PRL-1 (recombinant PRL-1; [1]) [%]	% Phosphatase Activity (compared to DMSO) PRL-2 (recombinant PRL-2; [1]) [%]	% Phosphatase Activity (compared to DMSO) PRL-3 (recombinant PRL-3; [1]) [%]	other results
Oc1ccc(OCc2ccccc2)cc1 [Monobenzone]	105	112	72	–
COc1cc(Nc2ncc3c(n2)-c2ccc(Cl)cc2C(c2c(F)cccc2OC)=NC3)ccc1C(=O)O [Alisertib (MLN8237)]	85	96	81	–
Oxytocin (Syntocinon)	82	68	81	–
Cc1c(Cl)cccc1Nc1ccccc1C(=O)O [Tolfenamic Acid]	–	–	–	% Phosphatase Activity (compared to DMSO) PRL-1 (recombinant PRL-1; [2]): 97%; % Phosphatase Activity (compared to DMSO) PRL-2 (recombinant PRL-2; [2]): 86%; % Phosphatase Activity (compared to DMSO) PRL-3 (recombinant PRL-3; [2]): 86%
Cc1cn([C@H]2C[C@H](N=[N+]=[N-])[C@@H](CO)O2)c(=O)[nH]c1=O [Zidovudine]	–	–	–	% Phosphatase Activity (compared to DMSO) PRL-1 (recombinant PRL-1; [2]): 100%; % Phosphatase Activity (compared to DMSO) PRL-2 (recombinant PRL-2; [2]): 112%; % Phosphatase Activity (compared to DMSO) PRL-3 (recombinant PRL-3; [2]): 85%
[I-].[K+] [Potassium Iodide]	94	91	87	–
S=C(NCc1ccc2c(c1)OCO2)N1CCN(c2ncnc3c2oc2ccccc23)CC1 [Amuvatinib (MP-470)]	90	100	76	–
CN[C@@H]1[C@H](O[C@H]2[C@H](O[C@H]3[C@H](O)[C@@H](O)[C@H](NC(=N)N)[C@@H](O)[C@@H]3NC(=N)N)O[C@@H](C)[C@]2(O)CO)O[C@@H](CO)[C@H](O)[C@H]1O [Dihydrostreptomycin sulfate]	89	90	110	–
CCN(CC)Cc1cc(Nc2ccnc3cc(Cl)ccc23)ccc1O.Cl.Cl.O.O [Amodiaquin (dihydrochloride dihydrate)]	84	74	77	–
CC(C)(C)NCC(O)c1cc(O)cc(O)c1 (stereo not drawn) [Terbutaline Sulfate]	–	–	–	% Phosphatase Activity (compared to DMSO) PRL-1 (recombinant PRL-1; [2]): 95%; % Phosphatase Activity (compared to DMSO) PRL-2 (recombinant PRL-2; [2]): 97%; % Phosphatase Activity (compared to DMSO) PRL-3 (recombinant PRL-3; [2]): 101%
Cc1ccc(C(=O)c2cc(O)c(O)c([N+](=O)[O-])c2)cc1 [Tolcapone]	–	–	–	% Phosphatase Activity (compared to DMSO) PRL-1 (recombinant PRL-1; [2]): 78%; % Phosphatase Activity (compared to DMSO) PRL-2 (recombinant PRL-2; [2]): 89%; % Phosphatase Activity (compared to DMSO) PRL-3 (recombinant PRL-3; [2]): 71%
COc1ccc(-c2nc3ccc(C4=NNC(=O)CC4C)cc3[nH]2)cc1 (stereo not drawn) [Pimobendan]	122	118	95	–
CCOc1ccc(NC(=O)CC(C)O)cc1 (stereo not drawn) [Bucetin]	109	108	92	–
CC(C)(O)c1ccccc1CC[C@@H](SCC1(CC(=O)O)CC1)c1cccc(/C=C/c2ccc3ccc(Cl)cc3n2)c1 [Montelukast Sodium]	172	161	182	–
COc1ccc(C(=O)c2ccccc2)c(O)c1 [Oxybenzone]	99	81	93	–
CCCCNc1ccc(C(=O)OCCN(C)C)cc1 [Tetracaine HCl]	–	–	–	% Phosphatase Activity (compared to DMSO) PRL-1 (recombinant PRL-1; [2]): 99%; % Phosphatase Activity (compared to DMSO) PRL-2 (recombinant PRL-2; [2]): 116%; % Phosphatase Activity (compared to DMSO) PRL-3 (recombinant PRL-3; [2]): 88%
CC(=O)SCC(Cc1ccccc1)C(=O)NCC(=O)OCc1ccccc1 (stereo not drawn) [Racecadotril]	95	99	76	–
NS(=O)(=O)c1ccc(C(=O)O)cc1 [Carzenide]	105	98	89	–
CCN1CC(CCN2CCOCC2)C(c2ccccc2)(c2ccccc2)C1=O.Cl (stereo not drawn) [Doxapram HCl]	113	98	92	–
Cc1ncc([N+](=O)[O-])n1CC(O)CCl (stereo not drawn) [Ornidazole]	104	102	84	–
CC(C)[C@H](N)C(=O)OCCOCn1cnc2c(=O)nc(N)[nH]c21.Cl [Valaciclovir HCl]	–	–	–	% Phosphatase Activity (compared to DMSO) PRL-1 (recombinant PRL-1; [2]): 97%; % Phosphatase Activity (compared to DMSO) PRL-2 (recombinant PRL-2; [2]): 102%; % Phosphatase Activity (compared to DMSO) PRL-3 (recombinant PRL-3; [2]): 98%

Molecule	% Phosphatase Activity (compared to DMSO) PRL-1 (recombinant PRL-1; [1]) [%]	% Phosphatase Activity (compared to DMSO) PRL-2 (recombinant PRL-2; [1]) [%]	% Phosphatase Activity (compared to DMSO) PRL-3 (recombinant PRL-3; [1]) [%]	other results
COC(=O)N[C@H](C(=O)N[C@@H](Cc1ccccc1)[C@@H](O)CN(Cc1ccc(-c2ccccn2)cc1)NC(=O)[C@@H](NC(=O)OC)C(C)(C)C)C(C)(C)C [Atazanavir]	94	89	85	–
O=c1[nH]c(=O)n(C2CCCO2)cc1F (stereo not drawn) [FT-207 (NSC 148958)]	115	95	73	–
CN(C)C(=O)COC(=O)Cc1ccc(OC(=O)c2ccc(NC(=N)N)cc2)cc1 [Camostat Mesilate]	98	138	94	–
N#CC1(c2ccc(NC(=O)c3cccnc3NCc3ccncc3)cc2)CCCC1 [Apatinib]	100	106	88	–
CCCCOc1ccc(CC(=O)NO)cc1 [Bufexamac]	117	110	91	–
CN(C)C/C=C/C(=O)Nc1cc2c(Nc3ccc(F)c(Cl)c3)ncnc2cc1O[C@H]1CCOC1.O=C(O)/C=C\C(=O)O.O=C(O)/C=C\C(=O)O [Afatinib (BIBW2992) Dimaleate]	97	94	101	–
Cc1cccc([C@H](C)c2cnc[nH]2)c1C [Dexmedetomidine]	–	–	–	% Phosphatase Activity (compared to DMSO) PRL-1 (recombinant PRL-1): 98%; % Phosphatase Activity (compared to DMSO) PRL-2 (recombinant PRL-2): 113%; % Phosphatase Activity (compared to DMSO) PRL-3 (recombinant PRL-3): 94%
COc1ccccc1N1CCN(CCCNc2cc(=O)n(C)c(=O)n2C)CC1.Cl [Urapidil HCl]	–	–	–	% Phosphatase Activity (compared to DMSO) PRL-1 (recombinant PRL-1; [2]): 98%; % Phosphatase Activity (compared to DMSO) PRL-2 (recombinant PRL-2; [2]): 97%; % Phosphatase Activity (compared to DMSO) PRL-3 (recombinant PRL-3; [2]): 92%
Cc1c(OCC(F)(F)F)ccnc1C[S+]([O-])c1nc2ccccc2[nH]1 (stereo not drawn) [Lansoprazole]	94	92	59	–
C#Cc1cccc(Nc2ncnc3cc(OCCOC)c(OCCOC)cc23)c1 [Erlotinib]	113	110	123	–
Cc1cc(C#N)cc(C)c1Oc1nc(Nc2ccc(C#N)cc2)nc(N)c1Br [Etravirine (TMC125)]	112	133	94	–
O=C(O)CSCC(=O)NC1CCSC1=O (stereo not drawn) [Erdosteine]	93	89	95	–
Cc1ccc(=O)n(-c2ccccc2)c1 [Pirfenidone]	114	137	97	–
CCOc1ccc2nc3cc(N)ccc3c(N)c2c1 [Ethacridine lactate monohydrate]	246	215	201	–
C=CCNC(N)=S [Allylthiourea]	106	121	86	–
CN1C(C(=O)Nc2ccccn2)=C(O)c2sccc2S1(=O)=O [Tenoxicam]	–	–	–	% Phosphatase Activity (compared to DMSO) PRL-1 (recombinant PRL-1; [2]): 92%; % Phosphatase Activity (compared to DMSO) PRL-2 (recombinant PRL-2; [2]): 75%; % Phosphatase Activity (compared to DMSO) PRL-3 (recombinant PRL-3; [2]): 71%
Nc1cc(C(Cl)=C(Cl)Cl)c(S(N)(=O)=O)cc1S(N)(=O)=O [Clorsulon]	98	115	92	–
CC(=O)Oc1ccc(C(c2ccc(OC(C)=O)cc2)c2ccccn2)cc1 [Bisacodyl]	88	104	66	–
COC(=O)C1=C(C#N)NC(C)=C(C(=O)OC(C)C)C1c1cccc([N+](=O)[O-])c1 (stereo not drawn) [Nilvadipine]	88	82	87	–
O=C(c1ccc(F)c(F)c1Nc1ccc(I)cc1F)N1CC(O)([C@@H]2CCCCN2)C1 [Cobimetinib (GDC-0973, RG7420)]	95	97	95	–

From publication PMC8119466, “A screen of FDA-approved drugs identifies inhibitors of protein tyrosine phosphatase 4A3 (PTP4A3 or PRL-3)” (Scientific Reports, 2021)
